Data taken from article PMC5207512, “Inhibition of Helicobacter pylori and Its Associated Urease by Palmatine: Investigation on the Potential Mechanism” (PLoS ONE, 2017).
Where two headings read alike, the source gives them in different places.

Tests used:
H. pylori urease (HPU) = molecular target: T1, H. pylori urease (HPU) (Helicobacter pylori, UniProt P69996); test: biochemical; settings: read-out: Residual urease activity (percent of control), Fig 4A HPU, Pal 0.5 mM, thiols 1.25 mM, replicates
T1 construct: HPU was prepared as previously described; made in house
T1 sequence (P14916 whole entry): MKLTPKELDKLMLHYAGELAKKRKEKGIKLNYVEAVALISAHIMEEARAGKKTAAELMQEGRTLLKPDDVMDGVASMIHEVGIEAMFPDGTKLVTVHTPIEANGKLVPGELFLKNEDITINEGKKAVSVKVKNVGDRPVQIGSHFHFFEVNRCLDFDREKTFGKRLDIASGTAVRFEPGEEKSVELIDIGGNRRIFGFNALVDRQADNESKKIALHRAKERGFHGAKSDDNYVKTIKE
T1 sequence (P69996 whole entry): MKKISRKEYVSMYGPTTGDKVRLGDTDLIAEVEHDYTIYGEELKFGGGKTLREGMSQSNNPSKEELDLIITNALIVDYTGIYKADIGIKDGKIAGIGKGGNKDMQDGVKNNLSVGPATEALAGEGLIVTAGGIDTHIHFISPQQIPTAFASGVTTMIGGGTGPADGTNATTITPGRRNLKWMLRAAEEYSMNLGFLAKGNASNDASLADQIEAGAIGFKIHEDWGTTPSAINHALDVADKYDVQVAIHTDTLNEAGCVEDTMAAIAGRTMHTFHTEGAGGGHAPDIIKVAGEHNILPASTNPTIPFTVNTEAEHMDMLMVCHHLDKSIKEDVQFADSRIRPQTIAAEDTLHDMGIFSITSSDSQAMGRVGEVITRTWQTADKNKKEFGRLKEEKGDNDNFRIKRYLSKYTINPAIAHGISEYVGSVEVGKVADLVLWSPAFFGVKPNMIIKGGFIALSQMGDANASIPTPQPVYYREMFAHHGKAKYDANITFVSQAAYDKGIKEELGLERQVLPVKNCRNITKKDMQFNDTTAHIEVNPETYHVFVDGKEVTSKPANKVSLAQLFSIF
Method: (§1) For the protection with thiols-containing compounds, the mixture consisting of 0.25 mg/mL urease (HPU or JBU), 0.5 mM Pal (for both HPU and JBU) and 1.25 mM thiols (DTT, GSH and L-cys) was incubated for 5, 10, 20, and 40 min at 37°C, respectively. The control sample instead of the protectors contained a proper volume of respective buffer.

jack bean urease (JBU) = molecular target: T2, jack bean urease (JBU) (Canavalia ensiformis, UniProt P07374); test: biochemical; settings: read-out: Residual urease activity (percent of control), Fig 4B JBU, Pal 0.5 mM, thiols 1.25 mM, replicates
T2 construct: Urease from jack bean (Canavalia ensiformis, JBU); purchased Sigma-Aldrich (St Louis, MO, USA) type III (catalogue number not given)
T2 sequence (P07374 whole entry, looked up): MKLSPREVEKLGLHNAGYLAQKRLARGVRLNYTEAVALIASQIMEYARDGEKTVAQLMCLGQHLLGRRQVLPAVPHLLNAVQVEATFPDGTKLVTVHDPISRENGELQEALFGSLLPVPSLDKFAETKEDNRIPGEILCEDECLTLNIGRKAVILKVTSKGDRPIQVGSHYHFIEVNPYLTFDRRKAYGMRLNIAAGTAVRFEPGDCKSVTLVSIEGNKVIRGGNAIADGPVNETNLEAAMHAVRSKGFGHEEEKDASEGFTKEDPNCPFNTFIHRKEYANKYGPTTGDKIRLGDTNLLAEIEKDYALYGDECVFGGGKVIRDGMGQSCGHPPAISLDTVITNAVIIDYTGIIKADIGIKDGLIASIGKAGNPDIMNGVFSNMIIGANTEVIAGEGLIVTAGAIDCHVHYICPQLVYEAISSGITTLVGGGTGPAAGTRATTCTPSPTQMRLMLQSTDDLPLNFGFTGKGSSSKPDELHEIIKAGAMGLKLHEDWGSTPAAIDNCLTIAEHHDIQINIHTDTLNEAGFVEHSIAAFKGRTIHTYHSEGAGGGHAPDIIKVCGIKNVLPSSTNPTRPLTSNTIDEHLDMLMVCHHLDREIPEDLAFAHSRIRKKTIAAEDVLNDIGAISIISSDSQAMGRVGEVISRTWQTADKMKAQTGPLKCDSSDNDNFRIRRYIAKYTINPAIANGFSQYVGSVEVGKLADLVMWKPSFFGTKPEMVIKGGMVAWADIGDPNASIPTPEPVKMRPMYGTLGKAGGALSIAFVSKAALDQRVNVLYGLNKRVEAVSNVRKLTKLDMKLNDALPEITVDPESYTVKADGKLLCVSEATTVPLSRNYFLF
Method: as §1

[1] = tested on: H. pylori ICDC 111001 (clinical isolate); test: MIC by agar dilution method; type: cell-based; settings: Helicobacter pylori
Method: (§2) A total of four H. pylori strains were studied, including three reference strains ATCC 43504, NCTC 26695 and SS1 gifted from Professor Richard Ferrero, Monash University, Australia, and one clinical isolate ICDC 111001 obtained from Professor Zhang Jianzhong, Chinese Center of Disease Control and Prevention. […] The MICs of Pal against the four H. pylori strains were evaluated by using agar dilution method. […] H. pylori strains were harvested and resuspended in PBS (1.0–2.0 McFarland were defined based on the strain properties). […] After 72 h, the MIC values were determined as the lowest concentration at which there was no strain growth judged by visual examination. Metronidazole was used as the positive control. The experiments were evaluated under two different pH (7.4 and 5.3) conditions and repeated twice.

H. pylori SS1 = test: MIC by agar dilution method; type: cell-based; settings: Helicobacter pylori
Method: as §2

H. pylori NCTC 26695 = test: MIC by agar dilution method; type: cell-based; settings: Helicobacter pylori
Method: as §2

H. pylori ATCC 43504 = test: MIC by agar dilution method; type: cell-based; settings: Helicobacter pylori
Method: as §2

## COc1cc2c(cc1OC)-c1cc3ccc(OC)c(OC)c3c[n+]1CC2 [Pal, Palmatine]
H. pylori urease (HPU); 5 min incubation
  remaining activity at 500 µM: 68.6%
H. pylori urease (HPU); 10 min incubation
  remaining activity at 500 µM: 62.4%
H. pylori urease (HPU); 20 min incubation
  remaining activity at 500 µM: 40.4%
H. pylori urease (HPU); 40 min incubation
  remaining activity at 500 µM: 24.2%
Jack bean urease (JBU); 5 min incubation
  remaining activity at 500 µM: 30.8%
Jack bean urease (JBU); 10 min incubation
  remaining activity at 500 µM: 35.2%
Jack bean urease (JBU); 20 min incubation
  remaining activity at 500 µM: 34.3%
Jack bean urease (JBU); 40 min incubation
  remaining activity at 500 µM: 32.7%
[1]; pH 5.3, 72 h
  MIC: 75 µg/mL
[1]; pH 7.4, 72 h
  MIC: 100 µg/mL
H. pylori SS1; pH 5.3, 72 h
  MIC: 75 µg/mL
H. pylori SS1; pH 7.4, 72 h
  MIC: 100 µg/mL
H. pylori NCTC 26695; NCTC26695, pH 5.3, 72 h
  MIC: 100 µg/mL
H. pylori NCTC 26695; NCTC26695, pH 7.4, 72 h
  MIC: 200 µg/mL
H. pylori ATCC 43504; ATCC43504, pH 5.3, 72 h
  MIC: 75 µg/mL
H. pylori ATCC 43504; ATCC43504, pH 7.4, 72 h
  MIC: 100 µg/mL
